The source made the active and inactive calls.
Experiments:
[1] = molecular target: T1, Histone-lysine N-methyltransferase NSD2 (Homo sapiens, UniProt O96028); assay type: biochemical
T1 sequence (O96028 whole entry): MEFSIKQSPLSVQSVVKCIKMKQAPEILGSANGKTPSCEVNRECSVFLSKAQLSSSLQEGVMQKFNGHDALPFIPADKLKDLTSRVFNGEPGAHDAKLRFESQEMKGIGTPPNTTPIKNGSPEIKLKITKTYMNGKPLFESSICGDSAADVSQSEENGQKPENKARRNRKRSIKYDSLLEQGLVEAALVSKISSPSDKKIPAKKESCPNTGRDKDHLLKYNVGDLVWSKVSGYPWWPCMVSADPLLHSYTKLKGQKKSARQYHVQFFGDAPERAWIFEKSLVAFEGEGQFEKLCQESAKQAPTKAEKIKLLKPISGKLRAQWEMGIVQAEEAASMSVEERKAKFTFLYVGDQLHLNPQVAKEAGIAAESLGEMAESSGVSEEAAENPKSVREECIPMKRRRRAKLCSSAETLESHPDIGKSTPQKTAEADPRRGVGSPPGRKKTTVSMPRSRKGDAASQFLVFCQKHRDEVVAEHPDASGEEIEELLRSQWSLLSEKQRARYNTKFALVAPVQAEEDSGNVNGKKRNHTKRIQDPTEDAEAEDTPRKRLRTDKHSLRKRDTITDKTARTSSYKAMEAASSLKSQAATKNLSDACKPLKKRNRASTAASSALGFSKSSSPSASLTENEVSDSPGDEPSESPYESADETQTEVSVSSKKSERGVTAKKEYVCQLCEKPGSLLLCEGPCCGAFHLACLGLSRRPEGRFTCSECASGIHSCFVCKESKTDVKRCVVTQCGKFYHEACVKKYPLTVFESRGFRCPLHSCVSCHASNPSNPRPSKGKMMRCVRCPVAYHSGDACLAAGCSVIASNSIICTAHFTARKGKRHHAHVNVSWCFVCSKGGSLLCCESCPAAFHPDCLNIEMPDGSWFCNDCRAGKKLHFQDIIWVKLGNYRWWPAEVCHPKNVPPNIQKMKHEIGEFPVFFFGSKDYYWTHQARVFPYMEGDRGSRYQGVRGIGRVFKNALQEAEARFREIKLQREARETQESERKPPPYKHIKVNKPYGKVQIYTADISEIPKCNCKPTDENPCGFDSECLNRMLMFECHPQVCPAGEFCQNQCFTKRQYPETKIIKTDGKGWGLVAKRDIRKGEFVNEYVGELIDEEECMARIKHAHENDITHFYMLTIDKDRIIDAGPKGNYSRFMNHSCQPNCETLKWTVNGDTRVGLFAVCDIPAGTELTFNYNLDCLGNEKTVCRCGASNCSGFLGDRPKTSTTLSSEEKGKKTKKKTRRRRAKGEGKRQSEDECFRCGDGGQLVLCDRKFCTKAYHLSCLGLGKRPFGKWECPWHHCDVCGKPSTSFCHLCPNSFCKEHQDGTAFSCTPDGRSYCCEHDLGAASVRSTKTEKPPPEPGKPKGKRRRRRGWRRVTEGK

[2] = molecular target: T2, Apoptotic protease-activating factor 1 (Homo sapiens, UniProt O14727); assay type: functional
T2 sequence (O14727 whole entry): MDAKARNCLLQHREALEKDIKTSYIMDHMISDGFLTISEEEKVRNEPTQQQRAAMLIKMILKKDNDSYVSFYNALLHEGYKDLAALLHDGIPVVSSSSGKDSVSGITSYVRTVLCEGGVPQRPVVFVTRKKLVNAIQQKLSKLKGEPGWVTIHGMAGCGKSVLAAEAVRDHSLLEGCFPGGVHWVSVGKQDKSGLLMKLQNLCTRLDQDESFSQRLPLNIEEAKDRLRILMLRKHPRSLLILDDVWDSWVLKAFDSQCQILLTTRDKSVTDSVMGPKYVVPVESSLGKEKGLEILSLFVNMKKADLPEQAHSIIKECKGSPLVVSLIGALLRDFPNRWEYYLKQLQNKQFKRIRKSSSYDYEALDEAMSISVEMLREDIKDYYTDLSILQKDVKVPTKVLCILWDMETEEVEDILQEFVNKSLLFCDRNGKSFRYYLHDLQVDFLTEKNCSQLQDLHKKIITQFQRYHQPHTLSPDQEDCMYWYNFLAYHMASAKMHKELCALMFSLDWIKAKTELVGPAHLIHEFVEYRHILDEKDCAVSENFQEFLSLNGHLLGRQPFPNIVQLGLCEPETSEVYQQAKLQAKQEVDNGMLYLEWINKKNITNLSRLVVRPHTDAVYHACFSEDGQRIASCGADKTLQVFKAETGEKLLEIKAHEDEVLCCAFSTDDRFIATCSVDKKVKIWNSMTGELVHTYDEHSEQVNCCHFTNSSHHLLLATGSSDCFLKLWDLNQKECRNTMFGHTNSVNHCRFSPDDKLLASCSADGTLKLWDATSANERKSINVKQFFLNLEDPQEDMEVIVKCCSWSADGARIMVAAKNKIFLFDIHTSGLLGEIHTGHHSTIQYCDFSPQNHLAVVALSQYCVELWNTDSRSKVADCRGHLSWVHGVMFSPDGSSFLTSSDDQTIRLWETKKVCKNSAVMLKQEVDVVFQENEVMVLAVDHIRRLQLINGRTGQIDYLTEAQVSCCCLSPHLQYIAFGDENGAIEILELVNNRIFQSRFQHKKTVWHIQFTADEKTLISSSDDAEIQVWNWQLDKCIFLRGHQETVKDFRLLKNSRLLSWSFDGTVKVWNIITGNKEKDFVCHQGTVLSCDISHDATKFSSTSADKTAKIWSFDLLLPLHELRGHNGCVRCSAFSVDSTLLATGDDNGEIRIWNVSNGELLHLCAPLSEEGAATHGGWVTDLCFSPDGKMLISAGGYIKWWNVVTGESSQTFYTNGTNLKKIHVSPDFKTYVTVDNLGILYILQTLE

SMILES	AC50 [1]	IC50 [2]
CC(C)[n+]1ccn(C2=C([N-]S(=O)(=O)c3ccccc3)C(=O)c3ccccc3C2=O)c1	5.79 µM (active)	7.16 µM (active)
CCCCCCCCCCOC(=O)Cn1c(COc2ccccc2)[n+](C)c2ccccc21	–	12.6 µM (active)
N#Cc1c(NC(=O)c2ccc(Br)o2)n(-c2ccccc2)c2nc3ccccc3nc12	11.6 µM (active)	7.22 µM (active)
CCOC(=O)c1c(-c2ccc(-c3ccccc3)cc2)csc1NC(=O)CNCCN(C)C	–	32.5 µM (active)
COc1cc(-c2nnc(SCc3cc(=O)oc4cc(O)c(O)cc34)o2)cc(OC)c1OC	0.665 µM (active)	–
